Test results from patent publication US9278914B2, “SARMs and method of use thereof” (UNIVERSITY OF TENNESSEE RESEARCH FOUNDATION, priority 2004, dated 2016).

Tested on: intact male Sprague-Dawley rats
Assay: Anabolic and androgenic activity in intact male rats, daily oral gavage
Format: in vivo, rat
Protocol: The test article for this study was weighed and dissolved in 10% DMSO (Fisher) diluted with PEG 300 (Acros Organics, N.J.) for preparation of the appropriate dosage concentrations. The animals were housed in groups of 2 to 3 animals per cage. Animals were randomly assigned to one of seven groups consisting of 4 to 5 animals per group. Control groups (intact and ORX) were administered vehicle daily. […] Where appropriate, animals were castrated on day one of the study. Treatment with compound of formula S-II began nine days post ORX and was administered daily via oral gavage for fourteen days.
The animals were sacrificed under anesthesia (ketamine/xyalzine, 87:13 mg/kg) and body weights were recorded. In addition, ventral prostate, seminal vesicles, and levator ani muscle were removed, individually weighed, normalized to body weight, and expressed as a percentage of intact control. Student's T-test was used to compare individual dose groups to the intact control group. Significance was defined a priori as a P-value<0.05. Ventral prostate and seminal vesicle weights were evaluated as a measure of androgenic activity, whereas levator ani muscle weight was evaluated as a measure of anabolic activity. Blood was collected from the abdominal aorta, centrifuged, and sera were frozen at −80° C. prior to determination of serum hormone levels. Serum luteinizing hormone (LH) and follicle stimulating hormone (FSH) concentrations were determined.
(§1) The test article for this study was weighed and dissolved in 10% DMSO (Fisher) diluted with PEG 300 (Acros Organics, N.J.) for preparation of the appropriate dosage concentrations. The animals were housed in groups of 2 to 3 animals per cage. Animals were randomly assigned to one of seven groups consisting of 4 to 5 animals per group. Control groups (intact and ORX) were administered vehicle daily. Compound of formula S-XXIII was administered via oral gavage at doses of 0.01, 0.03, 0.1, 0.3, 0.75, and 1 mg/day to both intact and ORX groups. Where appropriate, animals were castrated on day one of the study. Treatment with compound of formula S-XXIII began nine days post ORX and was administered daily via oral gavage for fourteen days.
as §1, with “S-XXIV” for “S-XXIII”, “study.” for “study. Treatment with compound of formula S-XXIII began nine days post ORX and was administered daily via oral gavage for fourteen days.”

With `C[C@](O)(COc1ccc(Cl)c(F)c1)C(=O)Nc1ccc(C#N)c(C(F)(F)F)c1` [S-II, (S)-3-(4-chloro-3-fluorophenoxy)-N-(4-cyano-3-(trifluoromethyl)phenyl)-2-hydroxy-2-methylpropanamide] the “Levator ani muscle weight” value (0.01 mg/day oral) was 100%±10%, the Prostate weight (0.01 mg/day oral) was 117%±20% and the “Levator ani muscle weight” value (0.03 mg/day oral) was 98%±7%. For the same molecule, the Prostate weight (0.03 mg/day oral) was 98%±15%, the “Levator ani muscle weight” value (0.1 mg/day oral) was 110%±5% and the Prostate weight (0.1 mg/day oral) was 82%±20%. For the same molecule, the “Levator ani muscle weight” value (0.3 mg/day oral) was 110%±5%, the Prostate weight (0.3 mg/day oral) was 62%±5% and the “Levator ani muscle weight” value (0.75 mg/day oral) was 125%±10%. The Prostate weight (0.75 mg/day oral) was 107%±30%, the “Levator ani muscle weight” value (1 mg/day oral) was 129%±10% and the Prostate weight (1 mg/day oral) was 110%±14%.
